Tests used:
Assay in all cases: fitness (endpoint OD595 vs no drug) (fraction); higher = more growth
[1] = system: S. pneumoniae D39V
Summary of the method: (§1)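 Fitness is computed from the optical density at which cultures reach stationary phase, divided by the robust mean of no-drug control wells. Any value above 1 is set to 1. Cultures started at OD595 0.01 in 384-well plates with TSB, LB Lennox or CY at 37 °C, and OD595 was read every 30 min for 14 h against a first-reading background.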

[2] = system: S. aureus DSM 20231
Summary of the method: as §1

[3] = system: B. subtilis 168
Summary of the method: as §1
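Further: OD595 on entry to stationary phase over no-drug wells; at most 1.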

CC(=O)Oc1ccccc1C(=O)O [Acetylsalicylic acid] + COc1c(N2C[C@@H]3CCCN[C@@H]3C2)c(F)cc2c(=O)c(C(=O)O)cn(C3CC3)c12 [Moxifloxacin]
fitness
Details | first compound 250 µg/mL | first compound 500 µg/mL | first compound 1000 µg/mL
[1], partner 0.005 µg/mL | 0.975 | 0.96 | –
[1], partner 0.01 µg/mL | 0.98 | 0.987 | 0.812
[1], partner 0.02 µg/mL | 0.932 | 0.94 | 0.829
[1], partner 0.0312 µg/mL | 0.188 | 0.192 | 0.216
[1], partner 0.0625 µg/mL | 0.17 | 0.142 | 0.137
[1], partner 0.125 µg/mL | 0.0443 | 0.0397 | 0.0308
[2], partner 0.0075 µg/mL | 0.799 | 0.703 | 0.577
[2], partner 0.015 µg/mL | 0.7 | 0.656 | 0.58
[2], partner 0.03 µg/mL | 0.649 | 0.623 | 0.578

fitness, [2], one replicate
Details | first compound 250 µg/mL | first compound 500 µg/mL | first compound 1000 µg/mL
partner 0.06 µg/mL | 0.647 | 0.627 | 0.584
partner 0.12 µg/mL | 0.532 | 0.536 | 0.529

CC(=O)Oc1ccccc1C(=O)O [Acetylsalicylic acid] + COc1ccc(C[C@H](N)C(=O)N[C@H]2[C@@H](O)[C@H](n3cnc4c(N(C)C)ncnc43)O[C@@H]2CO)cc1 [Puromycin]
fitness
Details | partner 0.39 µg/mL | partner 0.78 µg/mL | partner 1 µg/mL | partner 1.56 µg/mL | partner 2 µg/mL | partner 4 µg/mL
[1], first compound 250 µg/mL | – | – | ≥ 1 | – | 0.954 | 0.898
[1], first compound 500 µg/mL | – | – | 0.915 | – | 0.935 | 0.836
[1], first compound 1000 µg/mL | – | – | 0.889 | – | 0.815 | 0.622
[2], first compound 250 µg/mL | 0.894 | 0.947 | – | 0.88 | – | –
[2], first compound 500 µg/mL | 0.804 | 0.768 | – | 0.799 | – | –

fitness, [2], one replicate
Details | first compound 250 µg/mL | first compound 500 µg/mL | first compound 1000 µg/mL
partner 3.12 µg/mL | 0.84 | 0.791 | 0.0591
partner 6.24 µg/mL | 0.821 | 0.767 | 0.0807

CC(=O)Oc1ccccc1C(=O)O [Acetylsalicylic acid] + COc1cccc2c1C(=O)c1c(O)c3c(c(O)c1C2=O)C[C@@](O)(C(=O)CO)C[C@@H]3O[C@H]1C[C@H](N)[C@H](O)[C@H](C)O1 [Doxorubicin]
fitness
Details | first compound 250 µg/mL | first compound 500 µg/mL | first compound 1000 µg/mL
[1], partner 0.25 µg/mL | 0.94 | 0.893 | 0.724
[1], partner 0.5 µg/mL | 0.945 | 0.904 | 0.751
[1], partner 1 µg/mL | 0.889 | 0.882 | 0.763
[2], partner 0.625 µg/mL | 0.835 | 0.759 | 0.607
[2], partner 1.25 µg/mL | 0.798 | 0.725 | –
[2], partner 2.5 µg/mL | 0.783 | 0.71 | 0.586

CC(=O)Oc1ccccc1C(=O)O [Acetylsalicylic acid] + C[C@@H]1O[C@@H]1P(=O)(O)O [Fosfomycin]
fitness
Details | first compound 250 µg/mL | first compound 500 µg/mL | first compound 1000 µg/mL
[1], partner 1.25 µg/mL | 0.989 | 0.955 | 0.862
[1], partner 2.5 µg/mL | 0.939 | 0.939 | 0.82
[1], partner 5 µg/mL | 0.831 | 0.88 | 0.791
[2], partner 0.781 µg/mL | 0.621 | 0.619 | 0.51
[2], partner 1.562 µg/mL | 0.537 | 0.546 | 0.438
[2], partner 3.124 µg/mL | 0.487 | 0.452 | 0.283

CC(=O)Oc1ccccc1C(=O)O [Acetylsalicylic acid] + C[n+]1ccc(-c2cc[n+](C)cc2)cc1 [Paraquat]
fitness
Details | partner 1.25 µg/mL | partner 1.5 µg/mL | partner 2.5 µg/mL | partner 3 µg/mL | partner 5 µg/mL | partner 6 µg/mL
[1], first compound 250 µg/mL | – | 0.972 | – | 0.954 | – | 0.934
[1], first compound 500 µg/mL | – | 0.969 | – | 0.938 | – | 0.872
[1], first compound 1000 µg/mL | – | 0.916 | – | 0.873 | – | 0.772
[2], first compound 250 µg/mL | 0.877 | – | 0.868 | – | 0.861 | –
[2], first compound 500 µg/mL | 0.823 | – | 0.807 | – | 0.774 | –

CC(=O)Oc1ccccc1C(=O)O [Acetylsalicylic acid] + Cc1cc(NS(=O)(=O)c2ccc(N)cc2)no1 [Sulfamethoxazol]
fitness
Details | first compound 250 µg/mL | first compound 500 µg/mL | first compound 1000 µg/mL
[1], partner 1 µg/mL | 0.941 | 0.905 | 0.78
[1], partner 2 µg/mL | 0.946 | 0.926 | 0.811
[1], partner 4 µg/mL | 0.909 | 0.872 | 0.842
[2], partner 1 µg/mL | 0.862 | 0.683 | 0.53
[2], partner 2 µg/mL | 0.855 | – | 0.522
[2], partner 4 µg/mL | 0.844 | – | –

CC(=O)Oc1ccccc1C(=O)O [Acetylsalicylic acid] + Cc1ncc([N+](=O)[O-])n1CCO [Metronidazole]
fitness
Details | partner 0.625 µg/mL | partner 1.073 µg/mL | partner 1.25 µg/mL | partner 2.145 µg/mL | partner 2.5 µg/mL | partner 4.29 µg/mL | partner 5 µg/mL
[1], first compound 250 µg/mL | – | 0.982 | 0.971 | 0.959 | 0.989 | 0.937 | 0.972
[1], first compound 500 µg/mL | – | 0.979 | 0.975 | 0.965 | 1 | 0.975 | 0.965
[1], first compound 1000 µg/mL | – | 0.946 | 0.906 | 0.936 | 0.914 | 0.932 | 0.915
[2], first compound 250 µg/mL | 0.939 | – | ≥ 1 | – | ≥ 1 | – | –
[2], first compound 500 µg/mL | 0.778 | – | 0.791 | – | 0.759 | – | –

CC(=O)Oc1ccccc1C(=O)O [Acetylsalicylic acid] + Cc1onc(-c2ccccc2)c1C(=O)N[C@@H]1C(=O)N2[C@@H]1SC(C)(C)[C@@H]2C(=O)O [Oxacillin]
fitness
Details | first compound 250 µg/mL | first compound 500 µg/mL | first compound 1000 µg/mL
[1], partner 0.005 µg/mL | 0.987 | 0.959 | 0.921
[1], partner 0.01 µg/mL | 0.969 | 0.984 | –
[1], partner 0.02 µg/mL | 0.886 | 0.91 | –
[1], partner 0.04 µg/mL | 0.501 | 0.643 | –
[2], partner 0.0156 µg/mL | 0.763 | 0.656 | 0.561
[2], partner 0.0312 µg/mL | 0.583 | 0.548 | 0.519
[2], partner 0.0625 µg/mL | 0.494 | 0.508 | 0.393

CC(=O)Oc1ccccc1C(=O)O [Acetylsalicylic acid] + Cn1nnc(-c2ccc(-c3ccc(N4C[C@H](CO)OC4=O)cc3F)cn2)n1 [Tedizolid]
fitness
Details | partner 0.03125 µg/mL | partner 0.0625 µg/mL | partner 0.125 µg/mL | partner 0.25 µg/mL | partner 0.5 µg/mL
[1], first compound 250 µg/mL | 0.968 | 0.989 | 0.864 | 0.534 | 0.208
[1], first compound 500 µg/mL | 0.989 | 0.986 | 0.789 | 0.472 | 0.175
[1], first compound 1000 µg/mL | 0.966 | 0.962 | 0.728 | 0.385 | 0.16
[2], first compound 250 µg/mL | – | 0.839 | 0.778 | 0.403 | –
[2], first compound 500 µg/mL | – | – | – | 0.327 | –
[2], first compound 1000 µg/mL | – | – | – | 0.128 | –

CC(=O)Oc1ccccc1C(=O)O [Acetylsalicylic acid] + O=C(O[C@@H]1Cc2c(O)cc(O)cc2O[C@@H]1c1cc(O)c(O)c(O)c1)c1cc(O)c(O)c(O)c1 [EGCG]
fitness
Details | partner 12.5 µg/mL | partner 25 µg/mL | partner 50 µg/mL
[1], first compound 250 µg/mL | 0.955 | 0.935 | 0.914
[1], first compound 500 µg/mL | 0.927 | 0.929 | 0.851
[2], first compound 250 µg/mL | 0.764 | 0.774 | 0.766
[2], first compound 500 µg/mL | 0.735 | 0.767 | 0.72
[2], first compound 1000 µg/mL | 0.616 | 0.621 | 0.598

CN(C)[C@@H]1C(O)=C(C(N)=O)C(=O)[C@@]2(O)C(O)=C3C(=O)c4c(O)ccc(Cl)c4[C@@](C)(O)[C@H]3C[C@@H]12 [Chlortetracycline] + CC1=C\[C@@H](O)CC(=O)Cc2nc(co2)C(=O)N2CCC=C2C(=O)O[C@H](C(C)C)[C@H](C)/C=C/C(=O)NC\C=C\1 [Virginiamycin M1]
fitness, one replicate
Details | first compound 0.006 µg/mL | first compound 0.012 µg/mL | first compound 0.024 µg/mL | first compound 0.048 µg/mL
[1], partner 0.15 µg/mL | – | 0.955 | 0.895 | 0.825
[1], partner 0.3 µg/mL | – | 0.86 | 0.859 | 0.782
[1], partner 0.5 µg/mL | – | 0.889 | 0.89 | 0.848
[1], partner 1 µg/mL | – | 0.88 | 0.845 | 0.761
[2], partner 0.0625 µg/mL | 0.776 | – | – | –
[2], partner 0.125 µg/mL | 0.785 | – | – | –
[2], partner 0.25 µg/mL | 0.809 | – | – | –
[2], partner 0.5 µg/mL | – | 0.495 | 0.146 | 0.0554
[2], partner 1 µg/mL | – | 0.462 | 0.284 | 0.263

Details | fitness
[1], first compound 0.012 µg/mL, partner 2 µg/mL | 0.817
[1], first compound 0.024 µg/mL, partner 2 µg/mL | 0.787
[1], first compound 0.048 µg/mL, partner 2 µg/mL | 0.74
[1], first compound 0.375 µg/mL, partner 0.5 µg/mL | 0.025
[1], first compound 0.375 µg/mL, partner 1 µg/mL | 0.0379
[1], first compound 0.375 µg/mL, partner 2 µg/mL | 0.0569
[1], first compound 0.75 µg/mL, partner 0.5 µg/mL | 0.0422
[1], first compound 0.75 µg/mL, partner 1 µg/mL | 0.0446
[1], first compound 0.75 µg/mL, partner 2 µg/mL | 0.0829
[1], first compound 1.5 µg/mL, partner 0.5 µg/mL | 0.0504
[1], first compound 1.5 µg/mL, partner 1 µg/mL | 0.0561
[1], first compound 1.5 µg/mL, partner 2 µg/mL | 0.0443
[2], first compound 0.012 µg/mL, partner 0.0625 µg/mL | 0.565
[2], first compound 0.012 µg/mL, partner 0.125 µg/mL | 0.533
[2], first compound 0.012 µg/mL, partner 0.25 µg/mL | 0.567
[2], first compound 0.024 µg/mL, partner 0.0625 µg/mL | 0.191
[2], first compound 0.024 µg/mL, partner 0.125 µg/mL | 0.183
[2], first compound 0.024 µg/mL, partner 0.25 µg/mL | 0.188
[2], first compound 0.048 µg/mL, partner 0.0625 µg/mL | 0.0421
[2], first compound 0.048 µg/mL, partner 0.125 µg/mL | 0.0556
[2], first compound 0.048 µg/mL, partner 0.25 µg/mL | 0.0619
[3], first compound 0.0475 µg/mL, partner 0.0625 µg/mL | 0.874
[3], first compound 0.0475 µg/mL, partner 0.125 µg/mL | 0.898
[3], first compound 0.0475 µg/mL, partner 0.25 µg/mL | 0.87
[3], first compound 0.095 µg/mL, partner 0.0625 µg/mL | 0.823
[3], first compound 0.095 µg/mL, partner 0.125 µg/mL | 0.725
[3], first compound 0.095 µg/mL, partner 0.25 µg/mL | 0.759
[3], first compound 0.19 µg/mL, partner 0.0625 µg/mL | 0.55
[3], first compound 0.19 µg/mL, partner 0.125 µg/mL | 0.547
[3], first compound 0.19 µg/mL, partner 0.25 µg/mL | 0.568

Reference: the supplement of paper PMC10627819
